Measured values from patent US11478475B2, “Inhibitor of histone deacetylase 6 in the treatment of t-cell acute lymphoblastic leukemia (T-ALL) and other neoplasia with high expression of notch-3” (ISTITUTO ONCOLOGICO VENETO IOV-IRCCS, priority 2017, dated 2022).
Residues, ends and D or L forms follow the SMILES beside them. *: point of attachment. Cbz = O=C(OCc1ccccc1)*

Experiments:
TALL1 cells = experiment: Cytotoxicity seen as reduction of actin in Western blot; format: cell-based, human; conditions: 20 μM
[1] = tested on: Notch3 receptor present in the membrane; experiment: Cytofluorometric analysis of Notch3 membrane expression in T-ALL cells; format: cell-based, human
Notch3 receptor [2] = experiment: Western blotting of Notch3 protein in T-ALL cell lines; format: cell-based, human; conditions: 16 hours; for Notch3 protein levels, inhibitor added to TSA: MOLT3 and TALL1 cells, with proteasome or lysosome inhibitor
Method: In particular, in FIG. 1A is shown the three cell lines of T-ALL MOLT3, Jurkat and DND41 were treated for 16 hours in vitro with TSA 500 nM.
MOLT3 cells shown in FIG. 3A and TALL1 cells shown in FIG. 3B were treated with TSA 500 nM for 16 hours, and simultaneously in the presence or absence of a proteasome (MG132) or lysosome (chloroquine—CHL) inhibitor. […] The numbers below the bands refer to densitometric analysis.
In FIG. 4A, T-ALL cell lines and primary cells were treated in vitro for 16 hours with the HDAC6 inhibitor Tubacin (2 μM, TUB), HDAC1 inhibitor (2 μM, HDAC1i), or HDAC8 inhibitor (2 μM, HDAC8i). […] In FIG. 4C, the three cell lines of T-ALL MOLT3, Jurkat and DND41 (left) and n=3 primary lines (right) were treated for 24 hours in vitro with the compounds previously described, and cell death was evaluated by marking with Annexin V and analysis by cytofluorometer (*P<0.05, **P<0.01, ***P<0.001, mean±SD of three independent experiments).
(§1) In FIGS. 6A-6C, MOLT3 and TALL1 cell lines were infected with two different lentiviruses that block HDAC6 expression (shHDAC6 #1 and #2).
(§2) In FIG. 8A, JURKAT cells were treated in vitro with rocilinostat at a concentration of 8 μM for 16 hours.

MOLT3 line = experiment: Proliferation by cell count and MTS assay; format: cell-based, human; conditions: TSA
Method: (§3) In FIG. 2A and the 7 primary lines shown in FIG. 2B were treated for 24 hours in vitro with TSA 500 nM. Cell death was evaluated by marking with annexin V and analysis with the cytofluorometer. Proliferation inhibition shown in FIG. 2C was assessed in the MOLT3 line by cell count (left panel) and MTS assay (right panel). In FIG. 2D, the Jurkat cells were infected with a control virus (RV-CNTR) or with an expressing Notch3 virus (RV-N3) and subsequently treated with TSA 500 nM for 24 hours. Cell death was evaluated by a luminescence assay for caspase activation (*P<0.05, **P<0.01, ***P<0.001, mean±SD of three independent experiments).

[3] = tested on: Notch3 and the lysosomal marker LAMP2; experiment: Immunofluorescence analysis of Notch3/LAMP2 co-localization; format: cell-based; conditions: after treatment with TSA, N=21 cells
[4] = tested on: Jurkat, MOLT3 and TALL1 cells; experiment: Cell death by luminescence assay for caspase activation; format: cell-based, human; conditions: TSA 500 nM, 24 hours
Method: as §3, §1

Notch3 receptor [5] = experiment: Notch3 protein levels in patient-derived primary T-ALL lines; format: cell-based, human; conditions: n=7 patient-derived primary lines; TSA 500 nM, 16 hours
Method: Initially we treated 3 T-ALL cell lines in the laboratory with Tricostatin A (TSA), a generic commercial inhibitor that inhibits the whole class of HDACs that is commonly used in experimental practices. […] The same result was obtained by treating 7 patient-derived primary lines in vitro with TSA.
(§4) In particular, in FIG. 1A is shown the three cell lines of T-ALL MOLT3, Jurkat and DND41 were treated for 16 hours in vitro with TSA 500 nM. The western blotting confirms the decrease of the full length (FL) Notch3 receptor after treatment. Inhibition of HDACs is confirmed by the increase of acetylated tubulin (Ac. α Tub.). […] The treatment with TSA is accompanied by a decrease in the target genes pTα, CR2, DTX-1 in the cell lines shown in FIG. 1D and in the primary cells shown in FIG. 1E. (*P<0.05, **P<0.01, ***P<0.001, mean±SD of three independent experiments).

[6] = tested on: target genes pTα, CR2, DTX-1; experiment: Expression of Notch target genes in T-ALL cell lines and primary cells; format: cell-based, human
Method: as §4
(§5) In FIG. 4A, T-ALL cell lines and primary cells were treated in vitro for 16 hours with the HDAC6 inhibitor Tubacin (2 μM, TUB), HDAC1 inhibitor (2 μM, HDAC1i), or HDAC8 inhibitor (2 μM, HDAC8i). Treatment with Tubacin is shown in FIG. 4B, but not with the other inhibitors, is accompanied by a decrease in the target genes pTα, CR2, DTX-1. In FIG. 4C, the three cell lines of T-ALL MOLT3, Jurkat and DND41 (left) and n=3 primary lines (right) were treated for 24 hours in vitro with the compounds previously described, and cell death was evaluated by marking with Annexin V and analysis by cytofluorometer (*P<0.05, **P<0.01, ***P<0.001, mean±SD of three independent experiments).

[7] = tested on: acetylated tubulin (Ac. α Tub.); experiment: Western blotting of acetylated tubulin in T-ALL cell lines; format: cell-based, human; conditions: 16 hours
Method: as §4, §2

[8] = tested on: T-ALL cell lines and primary lines; experiment: Cell death by annexin V marking and cytofluorometer in T-ALL cells; format: cell-based, human; conditions: 24 hours
Method: as §3, §5
In FIG. 5 the T-ALL cell lines were treated in vitro for 24 hours with the HDAC6 Tubacin inhibitor (2 μM, TUB) and cell death was assessed by marking with Annexin V and analysis by cytofluorometer (*P<0.05, **P<0.01, ***P<0.001, mean±SD of three independent experiments).
as §2

NOTCH3 FL protein = experiment: Notch3 FL protein levels in HCC-1143 cells; format: cell-based; conditions: 8 μM, 24 hours
Method: (§6) To evaluate the effects of rocilinostat on Notch3 expression in HCC-1143 cells, HCC-1143 cells were treated in vitro with rocilinostat at a concentration of 8 μM for 24 hours. […] The increase in acetylated tubulin levels confirms the activity of rocilinostat.

[9] = tested on: HCC1143 breast cancer cells; experiment: Cell mortality by Annexin V/propidium iodide in HCC-1143 cells; format: cell-based; conditions: 16 μM
Method: For the graphs of FIG. 19, the following protocol was used:
(§7) Day 1: coating (ligand concentration 4 ng/uL)
(§8) Day 3 treatment with 16 μM rocilinostat
Day 5: marking with Annexin V/propidium iodide+reading of mortality by cytofluorometer.

HCC-1143 cells = experiment: Dose-response growth curve in HCC-1143 cells; format: cell-based
Notch3 [10] = experiment: Western blotting of Notch3 in MDA-MB-468 cells; format: cell-based; conditions: 8 μM
Method: (§9) In the assay of FIG. 11, Rocilinostat (ACY 1215) is used at a concentration of 8 μM in MDA-MB-468 cells. The expression of Notch3 and other markers was evaluated in cellular lysate by Western blotting.

HDAC6 = experiment: Western blotting, inhibition of the target HDAC6 in MDA-MB-468 cells; format: cell-based; conditions: 8 μM
Method: as §9

[11] = tested on: MDA-MB-468 breast cancer cells; experiment: Cell mortality by Annexin V/propidium iodide in MDA-MB-468 cells; format: cell-based; conditions: 16 μM
Method: For the assay of FIG. 14, the following protocol was used:
as §7, §8
Day 5: marking with Annexin V/propidium iodide+reading of mortality by cytofluorometer

Notch3 [12] = experiment: Cytofluorometric evaluation of Notch3 membrane expression in HCC-1143 cells; format: cell-based
Method: The following protocol was used for the graphs of FIG. 18:
(§10) Day 1: coating of plate with Notch ligands (ligand concentration 4 ng/uL)
(§11) Day 3 treatment with rocilinostat (16 μM) or control (DMSO)
Day 4: marking+reading by cytofluorometer

Notch3 [13] = experiment: Cytofluorometric evaluation of Notch3 expression in MDA-MB-468 cells; format: cell-based
Method: The graph of FIG. 12 confirms the reduction of Notch3 expression in MDA-MB-468 cell membrane after treatment with rocilinostat (8 μM) at 24 hours, in accordance with the results of the WB.
For the assay of FIG. 13, the following protocol was used:
as §10, §11
Day 4: Marking+reading by cytofluorometer

two T-ALL cell lines = experiment: Cell viability by ATPlite assay; format: cell-based, human; conditions: 48 hours, indicated concentrations
acetylated tubulin = experiment: Acetylated tubulin levels in HCC-1143 cells; format: cell-based; conditions: 8 μM, 24 hours
Method: as §6

[14] = MOLT3, Jurkat and DND41, TSA 500 nM

CC(C)C[C@H](NC(=O)[C@H](Cc1ccccc1)NC(=O)c1cnccn1)B(O)O [Bortezomib]
cytotoxicity (reduction of actin in Western blot) (TALL1 cells): high cytotoxicity
Notch3 expression ([1]; TALL1 cells, 20 μM): negative effect

CCN(CC)CCCC(C)Nc1ccnc2cc(Cl)ccc12 (stereo not drawn) [Chloroquine, chloroquine]
Notch3 protein levels, inhibitor added to TSA (Notch3 receptor [2]; TSA 500 nM): decrease of Notch3 blocked

CC(C)C[C@@H](C=O)NC(=O)[C@H](CC(C)C)NC(=O)[C@H](CC(C)C)NC(=O)OCc1ccccc1 [MG132] (Cbz-Leu-Leu-Leu-aldehyde)
Notch3 protein levels, inhibitor added to TSA (Notch3 receptor [2]; TSA 500 nM): further lowers

CC(/C=C/C(=O)NO)=C\[C@@H](C)C(=O)c1ccc(N(C)C)cc1 [TSA, Tricostatin A]
proliferation (cell count, MTS assay) (MOLT3 line): inhibition of proliferation
co-localization between Notch3 and LAMP2 [3]: increase in co-localization
cell death (caspase activation) after restoring Notch3 levels (RV-N3 vs RV-CNTR) [4]: die significantly less
full length (FL) Notch3 receptor, western blotting (Notch3 receptor [2]; [14]): decrease
Notch3 receptor protein levels (Notch3 receptor [5]): confirming the result seen in the cell lines
target genes pTα, CR2, DTX-1 ([6]; cell lines and primary cells, treatment with TSA): decrease
Notch3 receptor present in the membrane ([1]; Jurkat cells, Notch2/3 antibody, cytofluorometer, TSA): decrease
acetylated tubulin (Ac. α Tub.) [7, 14]: increase
cell death (annexin V) ([8]; T-ALL cell lines and 7 primary lines, TSA 500 nM): induction of cell death

O=C(CCCCCCC(=O)Nc1ccc([C@H]2O[C@@H](CSc3nc(-c4ccccc4)c(-c4ccccc4)o3)C[C@@H](c3ccc(CO)cc3)O2)cc1)NO [Tubacin]
decrease in Notch3 protein levels (Notch3 receptor [2]; T-ALL cell lines and primary cells, 2 μM): effects comparable to the generic TSA inhibitor
target genes pTα, CR2, DTX-1 ([6]; T-ALL cells, 2 μM, 16 hours): decrease
cell death (annexin V) ([8]; MOLT3, Jurkat, DND41 and n=3 primary lines, 2 μM): effects comparable to the generic TSA inhibitor
sensitivity of TALL1 cell line compared with other cell lines (cell death, Annexin V) ([8]; Tubacin 2 μM): significantly more sensitive

O=C(CCCCCCNC(=O)c1cnc(N(c2ccccc2)c2ccccc2)nc1)NO [rocilinostat, ricolinostat]
levels of NOTCH3 FL protein (NOTCH3 FL protein): decreases
cell mortality (Annexin V/propidium iodide) ([9]; Day 3 to Day 5): causes the death
cell mortality in the presence of Notch ligands (JAG1 and DLL4) ([9]; ligand 4 ng/uL): maintained
growth of HCC-1143 cells (dose-response curve) (HCC-1143 cells): inhibits the growth of HCC-1143 cells with dose-dependent effects
Notch3 expression, Western blotting (Notch3 [10]; 16 hours): not reduced
Notch3 expression, Western blotting (Notch3 [10]; 24 hours): drop in Notch3
target (HDAC6) inhibition (HDAC6; 16 hours): inhibited
target (HDAC6) inhibition (HDAC6; 24 hours): inhibited
target (HDAC6) inhibition (HDAC6; 48 hours): no longer inhibited
cell mortality (Annexin V/propidium iodide) ([11]; Day 3 to Day 5): causes the death
cell mortality in the presence of Notch ligands (JAG1 and DLL4) ([11]; ligand 4 ng/uL): maintained or slightly increased
levels of the NOTCH3 FL protein, Western blotting (Notch3 receptor [2]; JURKAT cells, 8 μM): decreases
Notch3 membrane expression ([1]; TALL1 cells, 8 μM, 16 hours): reduces
Notch3 expression, intensity of expression (MFI) (Notch3 [12]; 16 μM): more evident
Notch3 expression, percentage of positive cells (%) (Notch3 [12]; 16 μM): moderate negative effect
effects on Notch3 expression in the presence of Notch ligands (JAG1 and DLL4) (Notch3 [12]; 16 μM, ligand 4 ng/uL): not much influenced
Notch3 membrane expression (Notch3 [12]; rocilinostat alone): reduction
acetylated tubulin levels ([7]; JURKAT cells, 8 μM): increase
Notch3 expression in cell membrane (Notch3 [13]; 8 μM, 24 hours): reduction
Notch3 expression, intensity of expression (MFI) (Notch3 [13]; 16 μM): marked negative effect
Notch3 expression, percentage of positive cells (%) (Notch3 [13]; 16 μM): marked negative effect
effect on Notch3 expression in the presence of Notch ligands (JAG1 and DLL4) (Notch3 [13]; 16 μM, ligand 4 ng/uL): not substantially affected
cell viability (ATPlite assay) (two T-ALL cell lines): marked negative effect on cell growth
apoptosis (annexin V) ([8]; JURKAT and TALL1, 8 μM): strong increase of cell death
acetylated tubulin levels (acetylated tubulin): increase
